{"source": "paper PMC9569529", "about": "“Safe and Efficient Sigma1 Ligand: A Potential Drug Candidate for Multiple Sclerosis” (International Journal of Molecular Sciences, 2022)", "key": {"S. typhimurium TA1537": {"test_system": "S. typhimurium TA1537", "assay": "Ames test", "conditions": "7i 40 µg/plate"}, "S. typhimurium TA1535": {"test_system": "S. typhimurium TA1535", "conditions": "+S9; 7i 40 µg/plate; positive control 2-anthramine 0.5"}, "S. typhimurium TA100": {"test_system": "S. typhimurium TA100", "conditions": "+S9; 7i 40 µg/plate; positive control 2-anthramine 0.5"}, "S. typhimurium TA98": {"test_system": "S. typhimurium TA98", "assay": "Ames test", "conditions": "7i 40 µg/plate"}, "[1]": {"test_system": "experimental autoimmune encephalomyelitis (EAE)", "design": "method as in PMID 25521311", "conditions": "BD-1047 alone; cited from earlier work"}, "TK6 cells": {"test_system": "TK6 cells", "conditions": "human", "protocol": "The frequency of micronucleated (MN) cells was determined out of at least 2000 mononucleated cells."}, "[2]": {"test_system": "dizocilpine-induced learning deficits", "assay": "Dizocilpine-induced learning deficits, step-through passive avoidance", "format": "in vivo, male Swiss mice", "conditions": "3 mg/kg i.p., alone", "experimental": "(§1) The activity of compound 7i was evaluated in regard to its ability to reverse dizocilpine-induced learning deficits. Two behavioral tests were performed by Amylgen (Montferrier-sur-Lez, France) on male Swiss mice (aged 6–9 weeks). All compounds (7i and controls) were intraperitoneally injected.\n(§2) Animals were tested for spontaneous alternation performance in the Y-maze, an index of spatial working memory. Made of grey polyvinylchloride, the Y-maze has an arm which is 40 cm long, 13 cm high and 3 cm wide at the bottom and 10 cm wide at the top, converging at an equal angle. Each mouse was placed at the end of one arm and allowed to move freely through the maze during an 8-min session. The series of arm entries, including possible returns into the same arm, were checked visually. An alternation was defined as entries into all three arms on consecutive occasions. The number of maximum alternations was therefore the total number of arm entries minus two, and the percentage of alternation was calculated as: (actual alternations/maximum alternations) × 100. Parameters included the percentage of alternation (memory index) and the total number of arm entries (exploration index). Animals showing extreme behavior (alternation < 20% or >90% or number of arm entries < 10) are usually discarded from the calculations. […] Step-through latency (the latency in time spent to enter the dark compartment) and the number of vocalizations were recorded. […] Step-through latency was recorded up to 300 s. When either the mouse entered the dark compartment or 300 s had elapsed (they were therefore manually placed in it), escape latency (latency to exit from the dark compartment) was recorded with a value of up to 300 s. […]"}, "S1R–BiP complex": {"test_system": "S1R–BiP complex", "assay": "S1R-BiP dissociation assay in CHO cells (co-IP, ELISA)", "format": "cell-based", "conditions": "for effect on S1R–BiP association: 10 µM, 30-min incubation", "experimental": "The activity of compound 7i was evaluated in regard to its ability to dissociate the S1R–BiP complex. The S1R–BiP dissociation assay was performed by Amylgen (Montferrier-sur-Lez, France) as described in [13, 79]. Briefly, CHO cells were treated with test compounds for 30 min (37 °C). Crosslinking was performed with dithiobis succinimidyl propionate (DSP; Thermoscientific, Waltham, MA, USA). Lysis was performed after incubation for 15 min on ice. After centrifugation, supernatants were incubated overnight (4 °C) with the S1R antibody (Abcam, Cambridge, UK). Lysates were incubated with Sepharose Protein-A (Invitrogen). After the first centrifugation, the pellet was resuspended in radioimmunoprecipitation assay (RIPA) buffer. After a second centrifugation, the pellet was resuspended in 2× sample buffer/bMCE buffer. After the third centrifugation, supernatants were analyzed for BiP immunoreactivity (SEC343Mu ELISA, USCNK Life Sciences, Wuhan, China)."}, "[3]": {"test_system": "dizocilpine-induced learning deficits", "assay": "Dizocilpine-induced learning deficits, Y-maze spontaneous alternation", "format": "in vivo, male Swiss mice", "conditions": "3 mg/kg i.p., alone", "experimental": "as §1, §2"}, "QT interval": {"test_system": "QT interval", "assay": "ECG QT interval analysis under isoflurane anesthesia", "conditions": "for QT Interval Basal / QT Interval 3 min / QT Interval 6 min / QT Interval 10 min: in ms (unit assumed); for QT Interval 3 min: 3 min after injection; for QT Interval 6 min: 6 min after injection; for QT Interval 10 min: 10 min after injection", "protocol": "Four electrodes were inserted subcutaneously in the mouse limbs. Electrical signals were recorded with a Powerlab (Ad instruments) and analyzed with LabChart Pro software (v8.1.19).\nHeart rate and PR, QRS and QT intervals were measured as described in Supplementary Figure S3."}, "[4]": {"conditions": "+S9, positive control 2-anthramine 0.5"}}}
{"smiles": "Nc1ccc2cc3ccccc3cc2c1", "note": "[2-anthramine, reference compound]", "values": [{"measurement": "Ames TA1537 +S9 (Mean revertants/well per title)", "setting": "S. typhimurium TA1537; [4]", "result": 27.6}, {"measurement": "Ames TA1535 +S9 (Mean revertants/well per title)", "setting": "S. typhimurium TA1535", "result": 26.9}, {"measurement": "Ames TA100 +S9 (Mean revertants/well per title)", "setting": "S. typhimurium TA100", "result": 6.0}, {"measurement": "Ames TA98 +S9 (Mean revertants/well per title)", "setting": "S. typhimurium TA98; [4]", "result": 36.0}]}
{"smiles": "O=[N+]([O-])c1ccc2c(c1)Cc1ccccc1-2", "note": "[2-nitrofluorene, reference compound]", "values": [{"measurement": "Ames TA98 −S9 (Mean revertants/well per title)", "setting": "S. typhimurium TA98; −S9, positive control 2-nitrofluorene 0.5", "result": 23.1}]}
{"smiles": "Nc1c2ccccc2nc2ccccc12", "note": "[9-amino-acridine, reference compound]", "values": [{"measurement": "Ames TA1537 −S9 (Mean revertants/well per title)", "setting": "S. typhimurium TA1537; −S9, positive control 9-amino-acridine 1.56", "result": 8.4}]}
{"smiles": "CN(C)CCN(C)CCc1ccc(Cl)c(Cl)c1", "note": "[BD-1047]", "values": [{"measurement": "effect on EAE development, alone", "setting": "[1]", "result": "no significant effect"}]}
{"smiles": "O=P1(N(CCCl)CCCl)NCCCO1", "note": "(centres unmarked) [Cyclophosphamide]", "values": [{"measurement": "MN/2 × 10^3 Cells", "setting": "TK6 cells", "result": 35.5}, {"measurement": "RS (%)", "setting": "TK6 cells", "result": 88.3, "unit": "%"}]}
{"smiles": "CCCN(CCC)CCc1ccc(OC)c(OCCc2ccccc2)c1", "note": "[NE-100, reference compound]", "values": [{"measurement": "effect by itself in passive avoidance", "setting": "[2]", "result": "devoid of any effect"}, {"measurement": "effect on S1R–BiP association", "setting": "S1R–BiP complex", "result": "no effect"}, {"measurement": "effect by itself in Y-maze", "setting": "[3]", "result": "devoid of any effect"}]}
{"smiles": "O=C(OCCN1CCOCC1)C1(c2ccccc2)CCCCC1", "note": "[PRE-084, reference compound]", "values": [{"measurement": "effect on S1R–BiP association", "setting": "S1R–BiP complex", "result": "significantly causes the dissociation"}, {"measurement": "effect on S1R–BiP dissociation in presence of NE-100", "setting": "S1R–BiP complex; co-treatment with NE-100 (10 µM)", "result": "blocks"}]}
{"smiles": "C=C[C@H]1C[N@@]2CC[C@H]1C[C@@H]2[C@@H](O)c1ccnc2ccc(OC)cc12", "note": "[Quinidine, reference compound]", "values": [{"measurement": "QT interval, conclusion", "setting": "QT interval; 10 mg/kg and 100 mg/kg i.p., 6 to 10 min after injection", "result": "dose-dependently prolonged the QT interval"}, {"measurement": "QT Interval Basal", "setting": "QT interval; 10.0 mg/kg i.p. group", "result": "46 ± 2"}, {"measurement": "QT Interval 3 min", "setting": "QT interval; 10.0 mg/kg i.p.", "result": "50 ± 2"}, {"measurement": "QT Interval 6 min", "setting": "QT interval; 10.0 mg/kg i.p.", "result": "64 ± 6"}, {"measurement": "QT Interval 10 min", "setting": "QT interval; 10.0 mg/kg i.p.", "result": "65 ± 5"}, {"measurement": "QT Interval Basal", "setting": "QT interval; 100.0 mg/kg i.p. group", "result": "47 ± 4"}, {"measurement": "QT Interval 3 min", "setting": "QT interval; 100.0 mg/kg i.p.", "result": "58 ± 3"}, {"measurement": "QT Interval 6 min", "setting": "QT interval; 100.0 mg/kg i.p.", "result": "84 ± 7"}, {"measurement": "QT Interval 10 min", "setting": "QT interval; 100.0 mg/kg i.p.", "result": "76 ± 4"}]}
